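A five-concentration, 48-hour dose response in 96-well plates underlies each endpoint, interpolated linearly between surrounding concentrations. Abbreviation: GI50, concentration required for 50% inhibition of growth.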 Calls of active or inactive are those of the source. Rule as the data show it: active = GI50 up to about 1.1 µM and inactive = higher.
Experiments:
Experiment in all cases: NCI tumour cell line growth inhibition, 48 h
[1] = system: 786-0
[2] = system: A498
[3] = system: A549
[4] = system: CAKI-1
[5] = system: CCRF-CEM
[6] = system: COLO 205
[7] = system: DLD-1
[8] = system: DMS-273
[9] = system: EKVX
[10] = system: HCC 2998
[11] = system: HCT-116
[12] = system: HCT-15
[13] = system: HL-60
[14] = system: HOP-62
[15] = system: HOP-92
[16] = system: HT-29
[17] = system: IGROV-1
[18] = system: K562
[19] = system: KM12
[20] = system: LXFL 529
[21] = system: M14
[22] = system: M19-MEL
[23] = system: MOLT-4
[24] = system: Malme-3M
[25] = system: NCI-H226
[26] = system: NCI-H23
[27] = system: NCI-H522
[28] = system: OVCAR-3
[29] = system: OVCAR-4
[30] = system: OVCAR-8
[31] = system: RPMI-8226
[32] = system: RXF 631
[33] = system: SF-268
[34] = system: SF-295
[35] = system: SF-539
[36] = system: SK-MEL-28
[37] = system: SK-MEL-2
[38] = system: SK-OV-3
[39] = system: SN12C
[40] = system: SNB-19
[41] = system: SNB-75
[42] = system: SNB-78
[43] = system: SR
[44] = system: SW-620
[45] = system: TK-10
[46] = system: UACC-257
[47] = system: UACC-62
[48] = system: UO-31
[49] = system: XF498
[50] = system: ACHN
[51] = system: DMS-114
[52] = system: KM-20L2
[53] = system: OVCAR-5
[54] = system: SK-MEL-5
[55] = system: U-251

For `Cc1cc(=O)c2c([nH]1)NS(=O)(=O)NC2=O`, the GI50 [1] was > 100 µM (inactive), the GI50 [2] was > 100 µM (inactive) and the GI50 [3] was > 100 µM (inactive). The GI50 [4] was > 100 µM (inactive), the GI50 [5] was > 100 µM (inactive) and the GI50 [6] was > 100 µM (inactive). The GI50 [7] was > 100 µM (inactive), the GI50 [8] was > 100 µM (inactive) and the GI50 [9] was > 100 µM (inactive). The GI50 [10] was > 100 µM (inactive), the GI50 [11] was > 100 µM (inactive) and the GI50 [12] was > 100 µM. The GI50 [13] was > 100 µM (inactive), the GI50 [14] was > 100 µM (inactive) and the GI50 [15] was > 100 µM (inactive). For the same compound, the GI50 [16] was > 100 µM (inactive), the GI50 [17] was > 100 µM (inactive) and the GI50 [18] was > 100 µM (inactive). For the same compound, the GI50 [19] was > 100 µM (inactive), the GI50 [20] was > 100 µM (inactive) and the GI50 [21] was > 100 µM (inactive). For the same compound, the GI50 [22] was > 100 µM (inactive), the GI50 [23] was > 100 µM (inactive) and the GI50 [24] was > 100 µM (inactive). For the same compound, the GI50 [25] was > 100 µM (inactive), the GI50 [26] was > 100 µM (inactive) and the GI50 [27] was > 100 µM (inactive). The GI50 [28] was > 100 µM (inactive), the GI50 [29] was > 100 µM (inactive) and the GI50 [30] was > 100 µM (inactive). The GI50 [31] was > 100 µM (inactive), the GI50 [32] was > 100 µM (inactive) and the GI50 [33] was > 100 µM (inactive). The GI50 [34] was > 100 µM (inactive), the GI50 [35] was > 100 µM (inactive) and the GI50 [36] was > 100 µM (inactive). The GI50 [37] was > 100 µM (inactive), the GI50 [38] was > 100 µM (inactive) and the GI50 [39] was > 100 µM (inactive). For the same compound, the GI50 [40] was > 100 µM (inactive), the GI50 [41] was > 100 µM (inactive) and the GI50 [42] was > 100 µM (inactive). For the same compound, the GI50 [43] was > 100 µM (inactive), the GI50 [44] was > 100 µM (inactive) and the GI50 [45] was > 100 µM (inactive). For the same compound, the GI50 [46] was > 100 µM (inactive), the GI50 [47] was > 100 µM (inactive) and the GI50 [48] was > 100 µM (inactive). For the same compound, the GI50 [49] was > 100 µM (inactive).
For `Cc1ccc(/N=N/C(C(=O)c2ccccc2)C(=O)c2ccccc2)cc1`, the GI50 [1] was 16.7 µM (inactive), the GI50 [2] was 27.4 µM (inactive) and the GI50 [3] was 27.3 µM (inactive). For the same compound, the GI50 [50] was 26.6 µM (inactive), the GI50 [4] was 27.4 µM (inactive) and the GI50 [5] was 10.9 µM (inactive). For the same compound, the GI50 [6] was 22.6 µM (inactive), the GI50 [7] was 21.9 µM (inactive) and the GI50 [51] was 20.1 µM (inactive). The GI50 [8] was 19.2 µM (inactive), the GI50 [9] was 30.7 µM (inactive) and the GI50 [10] was 38.3 µM (inactive). The GI50 [11] was 14.9 µM (inactive), the GI50 [12] was 14.2 µM and the GI50 [13] was 9.08 µM (inactive). The GI50 [14] was 21.1 µM (inactive), the GI50 [15] was 13.6 µM (inactive) and the GI50 [16] was 22 µM (inactive). The GI50 [17] was 31.2 µM (inactive), the GI50 [18] was 17.7 µM (inactive) and the GI50 [52] was 25.3 µM (inactive). The GI50 [19] was 36.1 µM (inactive), the GI50 [20] was 14.5 µM (inactive) and the GI50 [21] was 15.7 µM (inactive). For the same compound, the GI50 [22] was 16 µM (inactive), the GI50 [23] was 10.2 µM (inactive) and the GI50 [24] was 29.9 µM (inactive). The GI50 [25] was 17.6 µM (inactive), the GI50 [26] was 20.5 µM (inactive) and the GI50 [27] was 17.3 µM (inactive). The GI50 [28] was 29.1 µM (inactive), the GI50 [29] was 13.1 µM (inactive) and the GI50 [53] was 22.2 µM (inactive). For the same compound, the GI50 [30] was 28.6 µM (inactive), the GI50 [31] was 16.9 µM (inactive) and the GI50 [32] was 35.8 µM (inactive). For the same compound, the GI50 [33] was 29.8 µM (inactive), the GI50 [34] was 24.7 µM (inactive) and the GI50 [35] was 22.4 µM (inactive). For the same compound, the GI50 [36] was 31.6 µM (inactive), the GI50 [37] was 19.5 µM (inactive) and the GI50 [54] was 17.7 µM (inactive). For the same compound, the GI50 [38] was 47.1 µM (inactive), the GI50 [39] was 18.7 µM (inactive) and the GI50 [40] was 19 µM (inactive). For the same compound, the GI50 [41] was 20.6 µM (inactive), the GI50 [44] was 29.1 µM (inactive) and the GI50 [45] was 41.4 µM (inactive). For the same compound, the GI50 [55] was 18 µM (inactive), the GI50 [46] was 29.4 µM (inactive) and the GI50 [47] was 16.4 µM (inactive). For the same compound, the GI50 [48] was 14.8 µM (inactive) and the GI50 [49] was 20.1 µM (inactive).

Source: ChEMBL document CHEMBL1201862, “PubChem BioAssay data set” (2004)
